{
  "source": "patent US20120201867A1",
  "about": "“DRUG DELIVERY FROM EMBOLIC AGENTS” (priority 2004, published 2012)",
  "origin": "cited, not measured here",
  "key": {"[1]": {"tested_on": "topoisomerase I purified from human and rodent tumour cell lines", "details": "SN-38 versus irinotecan"}, "CC531-lacZ cells": {"tested_on": "CC531-lacZ cells", "details": "Saenger et al."}},
  "note": "Structures can show the parent of a compound that is named as a salt.",
  "data": [
    {"compound": "CCc1c2c(nc3ccc(O)cc13)-c1cc3c(c(=O)n1C2)COC(=O)[C@]3(O)CC", "note": "[SN-38]", "values": [
      {"measurement": "potency relative to irinotecan as an inhibitor of topoisomerase I", "setting": "[1]", "result": "approximately 1000 times"}
    ]},
    {"compound": "CCc1c2c(nc3ccc(OC(=O)N4CCC(N5CCCCC5)CC4)cc13)-c1cc3c(c(=O)n1C2)COC(=O)[C@]3(O)CC", "note": "[irinotecan, Irinotecan hydrochloride trihydrate]", "values": [
      {"measurement": "complete remission, share of rats", "setting": "CC531-lacZ cells", "result": 44, "unit": "%"},
      {"measurement": "reduction of the mean tumour cell load", "setting": "CC531-lacZ cells", "result": 66, "unit": "%"}
    ]}
  ]
}
